From patent US20080260716A1, “Method and Composition for High Level Disinfection Employing Quaternary Ammonium Compounds” (priority 2004, published 2008)
Read-outs that look alike come from different tables or passages of the source.

Legend:
C. sporogens spores = test: AOAC sporicidal test, kill time; assay type: cell-based; settings: for C. sporogens (no kill): 48 hrs
[1] = tested on: Mycobacterium terrae, B. subtilis, C. sporogens; design: key: satisfies the FDA requirement for high level disinfection (“HLD”); fails to do so (“F”)
[2] = Table 3 Prior art, 0.25% QUAT, 25° C.
[3] = Table 6 unnumbered test, 2% QUAT + 0.2% Protease (Savinase 16 L), 25° C. + 1% borax
[4] = test 3.4, 0.25% QUAT, 62° C. + ultrasound
[5] = test 4.1, 2% QUAT, 25° C. + 1% borax
[6] = test 4.2, 5% QUAT, 25° C. + 1% borax
[7] = test 4.3, 1% QUAT, 40° C. + 1% borax
[8] = test 4.4, 2% QUAT, 40° C. + 1% borax
[9] = test 4.5, 5% QUAT, 40° C. + 1% borax
[10] = test 4.6, 2% QUAT, 50° C. + 1% borax
[11] = test 4.7, 5% QUAT, 50° C. + 1% borax
[12] = test 5.2, 2% QUAT, 40° C. + ultrasound 10 min each hour
[13] = test 5.3, 5% QUAT, 40° C. + ultrasound 10 min each hour
[14] = test 5.4, 1% QUAT, 40° C. + ultrasound 10 min each hour
[15] = test 5.5, 2% QUAT + 1% borax, 40° C. + ultrasound 10 min each hour
[16] = test 5.6, 5% QUAT + 1% borax, 40° C. + ultrasound 10 min each hour
[17] = test 5.7, 2% QUAT + 1% borax + Protease, 40° C. + ultrasound 10 min each hour
[18] = test 6.1, 2% QUAT + 0.2% Protease (Savinase 16 L), 25° C.
[19] = test 6.2, 2% QUAT + 0.2% Protease (Savinase 16 L), 40° C.
[20] = test 6.3, 2% QUAT + 0.2% Protease (Savinase 16 L), 40° C. + 1% borax
[21] = test 6.4, 2% QUAT + 0.2% Protease (Savinase 16 L), 50° C.
[22] = test 6.5, 2% QUAT + 0.2% Protease (Savinase 16 L), 50° C. + 1% borax
[23] = test 6.6, 2% QUAT + 0.2% Protease (Savinase 16 L), 40° C. + ultrasound 10 min each hour + 1% borax
[24] = test 6.7, 2% QUAT + 1% borax + Protease, 40° C. + ultrasound 10 min each hour

benzalkonium chloride [QUAT]
Kill Time C. sporogens (C. sporogens spores; [2]): >24 h | Kill Time C. sporogens (C. sporogens spores; [3]): >48 h | C. sporogens (no kill) (C. sporogens spores; [3]): (no kill) (“No kill” means less than 2 log reduction from the initial population) | kill time of C. sporogenes (C. sporogens spores; above 1% w/w of quat, 40° C.): less than 2 hours | Kill Time C. sporogens (C. sporogens spores; test 1.1, 0.025% QUAT, 25° C.): >24 h | Kill Time C. sporogens (C. sporogens spores; test 1.2, 0.25% QUAT, 25° C.): >24 h | Kill Time C. sporogens (C. sporogens spores; test 2.1, 5% QUAT, 30° C.): <2 h | Kill Time C. sporogens (C. sporogens spores; test 2.2, 1.0% QUAT, 40° C.): <2 h | Kill Time C. sporogens (C. sporogens spores; test 2.3, 2.0% QUAT, 40° C.): <2 h | Kill Time C. sporogens (C. sporogens spores; test 2.4, 5.0% QUAT, 40° C.): <1 h | Kill Time C. sporogens (C. sporogens spores; test 2.5, 1.0% QUAT, 50° C.): <2 h | Kill Time C. sporogens (C. sporogens spores; test 2.6, 2.0% QUAT, 50° C.): <2 h | Kill Time C. sporogens (C. sporogens spores; test 2.7, 5.0% QUAT, 50° C.): <1 h | Kill Time C. sporogens (C. sporogens spores; test 2.7, 5.0% QUAT, 50° C., listed as quat): less than one hour | Kill Time C. sporogens (C. sporogens spores; test 2.8, 1.0% QUAT, 80° C.): <1 h | Kill Time C. sporogens (C. sporogens spores; test 2.8, 1.0% QUAT, 80° C., listed as quat): less than one hour | Kill Time C. sporogens (C. sporogens spores; test 3.1, 0.25% QUAT, 40° C.): >24 h | Kill Time C. sporogens (C. sporogens spores; test 3.2, 0.25% QUAT, 50° C.): >24 h | Kill Time C. sporogens (C. sporogens spores; test 3.3, 0.25% QUAT, 60° C.): >24 h | Kill Time C. sporogens (C. sporogens spores; [4]): >24 h | Kill Time C. sporogens (C. sporogens spores; test 3.5, 1.0% QUAT, 25° C.): >48 h | C. sporogens (no kill) (C. sporogens spores; test 3.5, 1.0% QUAT, 25° C.): (no kill) (“No kill” means less than 2 log reduction from the initial population) | Kill Time C. sporogens (C. sporogens spores; test 3.6, 2.0% QUAT, 25° C.): >48 h | C. sporogens (no kill) (C. sporogens spores; test 3.6, 2.0% QUAT, 25° C.): (no kill) (“No kill” means less than 2 log reduction from the initial population) | Kill Time C. sporogens (C. sporogens spores; test 3.7, 5.0% QUAT, 25° C.): >48 h | C. sporogens (no kill) (C. sporogens spores; test 3.7, 5.0% QUAT, 25° C.): (no kill) (“No kill” means less than 2 log reduction from the initial population) | Kill Time C. sporogens (C. sporogens spores; test 3.8, 0.6%, 40° C.): >24 h | Kill Time C. sporogens (C. sporogens spores; test 3.9, 0.6% QUAT, 50° C.): <16 h | Kill Time C. sporogens (C. sporogens spores; [5]): >48 h | C. sporogens (no kill) (C. sporogens spores; [5]): (no kill) (“No kill” means less than 2 log reduction from the initial population) | Kill Time C. sporogens (C. sporogens spores; [6]): >48 h | C. sporogens (no kill) (C. sporogens spores; [6]): (no kill) (“No kill” means less than 2 log reduction from the initial population) | Kill Time C. sporogens (C. sporogens spores; [7]): <1 h | Kill Time C. sporogens (C. sporogens spores; [8]): <1 h | Kill Time C. sporogens (C. sporogens spores; [9]): <1 h | Kill Time C. sporogens (C. sporogens spores; [10]): <1 h | Kill Time C. sporogens (C. sporogens spores; [11]): <1 h | Kill Time C. sporogens (C. sporogens spores; test 5.1, 1% QUAT, 40° C. + ultrasound 10 min each hour): <2 h | Kill Time C. sporogens (C. sporogens spores; [12]): <1 h | Kill Time C. sporogens (C. sporogens spores; [13]): <1 h | Kill Time C. sporogens (C. sporogens spores; [14]): <1 h | Kill Time C. sporogens (C. sporogens spores; [15]): <1 h | Kill Time C. sporogens (C. sporogens spores; [16]): <1 h | Kill Time C. sporogens (C. sporogens spores; [17]): <1 h | Kill Time C. sporogens (C. sporogens spores; [18]): >48 h | C. sporogens (no kill) (C. sporogens spores; [18]): (no kill) (“No kill” means less than 2 log reduction from the initial population) | Kill Time C. sporogens (C. sporogens spores; [19]): <1 h | Kill Time C. sporogens (C. sporogens spores; [20]): <1 h | Kill Time C. sporogens (C. sporogens spores; [21]): <1 h | Kill Time C. sporogens (C. sporogens spores; [22]): <1 h | Kill Time C. sporogens (C. sporogens spores; [23]): <1 h | Kill Time C. sporogens (C. sporogens spores; [24]): <1 h | HLD Or F [1, 2]: F | HLD Or F [1, 3]: F | HLD or F ([1]; test 1.1, 0.025% QUAT, 25° C.): F | HLD or F ([1]; test 1.2, 0.25% QUAT, 25° C.): F | HLD or F ([1]; test 2.1, 5% QUAT, 30° C.): HLD | HLD or F ([1]; test 2.2, 1.0% QUAT, 40° C.): HLD | HLD or F ([1]; test 2.3, 2.0% QUAT, 40° C.): HLD | HLD or F ([1]; test 2.4, 5.0% QUAT, 40° C.): HLD | HLD or F ([1]; test 2.5, 1.0% QUAT, 50° C.): HLD | HLD or F ([1]; test 2.6, 2.0% QUAT, 50° C.): HLD | HLD or F ([1]; test 2.7, 5.0% QUAT, 50° C.): HLD | HLD or F ([1]; test 2.8, 1.0% QUAT, 80° C.): HLD | HLD Or F ([1]; test 3.1, 0.25% QUAT, 40° C.): F | HLD Or F ([1]; test 3.2, 0.25% QUAT, 50° C.): F | HLD Or F ([1]; test 3.3, 0.25% QUAT, 60° C.): F | HLD Or F [1, 4]: F | HLD Or F ([1]; test 3.5, 1.0% QUAT, 25° C.): F | HLD Or F ([1]; test 3.6, 2.0% QUAT, 25° C.): F | HLD Or F ([1]; test 3.7, 5.0% QUAT, 25° C.): F | HLD Or F ([1]; test 3.8, 0.6%, 40° C.): F | HLD Or F ([1]; test 3.9, 0.6% QUAT, 50° C.): F | HLD or F [1, 5]: F | HLD or F [1, 6]: F | HLD or F [1, 7]: HLD | HLD or F [1, 8]: HLD | HLD or F [1, 9]: HLD | HLD or F [1, 10]: HLD | HLD or F [1, 11]: HLD | HLD Or F [1, 12]: HLD | HLD Or F [1, 13]: HLD | HLD Or F [1, 14]: HLD | HLD Or F [1, 15]: HLD | HLD Or F [1, 16]: HLD | HLD Or F [1, 17]: HLD | HLD Or F [1, 18]: F | HLD Or F [1, 19]: HLD | HLD Or F [1, 20]: HLD | HLD Or F [1, 21]: HLD | HLD Or F [1, 22]: HLD | HLD Or F [1, 23]: HLD | HLD Or F [1, 24]: HLD
